Reference: patent US8450332B2, “LIMK2 inhibitors, compositions comprising them, and methods of their use” (Lexicon Pharmaceuticals, Inc., priority 2008, dated 2013)

Target: T1, LIMK2 (Homo sapiens, UniProt P53671)
T1 construct: His tag (histidine-tagged; pFastBacHT vector); made in house; host or cells: Sf9 insect cells (BAC-to-BAC baculovirus system)
Assay: In vitro LIMK2 inhibition assay (33P incorporation into myelin basic protein flash plates)
Assay type: biochemical

T1 sequence (P53671 whole entry): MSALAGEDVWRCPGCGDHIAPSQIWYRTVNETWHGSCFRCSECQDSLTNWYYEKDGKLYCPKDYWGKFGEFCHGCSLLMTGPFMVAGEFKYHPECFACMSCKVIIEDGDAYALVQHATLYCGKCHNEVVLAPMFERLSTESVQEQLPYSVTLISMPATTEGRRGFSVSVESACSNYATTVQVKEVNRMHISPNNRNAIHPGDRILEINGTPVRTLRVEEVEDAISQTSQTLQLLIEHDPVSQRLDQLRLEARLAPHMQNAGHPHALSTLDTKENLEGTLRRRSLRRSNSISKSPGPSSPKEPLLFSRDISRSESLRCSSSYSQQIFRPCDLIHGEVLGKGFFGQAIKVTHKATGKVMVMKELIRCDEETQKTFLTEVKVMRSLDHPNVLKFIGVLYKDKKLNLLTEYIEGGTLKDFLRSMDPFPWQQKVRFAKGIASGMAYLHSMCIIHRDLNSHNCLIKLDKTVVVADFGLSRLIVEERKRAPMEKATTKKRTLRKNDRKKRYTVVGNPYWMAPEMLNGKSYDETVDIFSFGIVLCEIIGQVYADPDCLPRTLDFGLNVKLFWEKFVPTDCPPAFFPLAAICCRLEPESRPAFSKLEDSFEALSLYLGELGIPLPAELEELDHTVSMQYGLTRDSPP

SMILES | IC50
COCCC(=O)NCC1(C(=O)Nc2cccc(OC(=O)N(C)C)c2)CCN(c2ncnc3[nH]cc(C)c23)CC1 [3-(4-((3-methoxypropanamido)methyl)-1-(5-methyl-7H-pyrrolo[2,3-d]pyrimidin-4-yl)piperidine-4-carboxamido)phenyl dimethylcarbamate] | < 250 nM
Cc1c[nH]c2ncnc(N3CCC(C(=O)Nc4cccc(OC(=O)N(C)C)c4)(C(C)C)CC3)c12 [3-(4-isopropyl-1-(5-methyl-7H-pyrrolo[2,3-d]pyrimidin-4-yl)piperidine-4-carboxamido)phenyl dimethylcarbamate] | < 250 nM
Cc1c[nH]c2ncnc(N3CCC(CN4CCOCC4)(C(=O)Nc4cccc(OC(=O)N(C)C)c4)CC3)c12 [3-(1-(5-methyl-7H-pyrrolo[2,3-d]pyrimidin-4-yl)-4-(morpholinomethyl)piperidine-4-carboxamido)phenyl dimethylcarbamate] | < 250 nM
Cc1c[nH]c2ncnc(N3CCC(CN)(C(=O)Nc4cccc(OCC(=O)N(C)C)c4)CC3)c12 [4-(aminomethyl)-N-(3-(2-(dimethylamino)-2-oxoethoxy)phenyl)-1-(5-methyl-7H-pyrrolo[2,3-d]pyrimidin-4-yl)piperidine-4-carboxamide] | < 250 nM
Cc1c[nH]c2ncnc(N3CCC(CN)(C(=O)Nc4cccc(F)c4)CC3)c12 [4-(aminomethyl)-N-(3-fluorophenyl)-1-(5-methyl-7H-pyrrolo[2,3-d]pyrimidin-4-yl)piperidine-4-carboxamide] | < 250 nM
Cc1c[nH]c2ncnc(N3CCC(NCCN)(C(=O)Nc4cccc(OC(=O)N(C)C)c4)CC3)c12 [3-(4-(2-aminoethylamino)-1-(5-methyl-7H-pyrrolo[2,3-d]pyrimidin-4-yl)piperidine-4-carboxamido)phenyl dimethylcarbamate] | < 250 nM
Cc1c[nH]c2ncnc(N3CCC(Cc4nnn[nH]4)(C(=O)Nc4cccc(OC(=O)N(C)C)c4)CC3)c12 [3-(4-((1H-tetrazol-5-yl)methyl)-1-(5-methyl-7H-pyrrolo[2,3-d]pyrimidin-4-yl)piperidine-4-carboxamido)phenyl dimethylcarbamate] | < 250 nM
Cc1c[nH]c2ncnc(N3CCC(NCCO)(C(=O)Nc4cccc(OC(=O)N(C)C)c4)CC3)c12 [3-(4-(2-hydroxyethylamino)-1-(5-methyl-7H-pyrrolo[2,3-d]pyrimidin-4-yl)piperidine-4-carboxamido)phenyl dimethylcarbamate] | < 250 nM
Cc1c[nH]c2ncnc(N3CCC(CNC(=O)N4CCOCC4)(C(=O)Nc4cccc(OC(=O)N(C)C)c4)CC3)c12 [3-(1-(5-methyl-7H-pyrrolo[2,3-d]pyrimidin-4-yl)-4-((morpholine-4-carboxamido)methyl)piperidine-4-carboxamido)phenyl dimethylcarbamate] | < 250 nM
CC1(C(=O)Nc2cccc(Br)c2)CCN(c2ncnc3[nH]cc(Cl)c23)CC1 [N-(3-bromophenyl)-1-(5-chloro-7H-pyrrolo[2,3-d]pyrimidin-4-yl)-4-methylpiperidine-4-carboxamide] | < 250 nM
Cc1c[nH]c2ncnc(N3CCC(CN)(C(=O)Nc4cccc(OC(=O)N5CCCC5)c4)CC3)c12 [3-(4-(aminomethyl)-1-(5-methyl-7H-pyrrolo[2,3-d]pyrimidin-4-yl)piperidine-4-carboxamido)phenyl pyrrolidine-1-carboxylate] | < 250 nM
COCCOCC(=O)NCC1(C(=O)Nc2cccc(OC(=O)N(C)C)c2)CCN(c2ncnc3[nH]cc(C)c23)CC1 [3-(4-((2-(2-methoxyethoxy)acetamido)methyl)-1-(5-methyl-7H-pyrrolo[2,3-d]pyrimidin-4-yl)piperidine-4-carboxamido)phenyl dimethylcarbamate] | < 250 nM
